Laboratory results from patent publication US10052304B2, “Compositions and methods for cancer therapy” (UNIVERSITY OF IOWA RESEARCH FOUNDATION, priority 2015, dated 2018).
Values joined by “and” are separate entries in the source; they are usually repeats but may differ in a detail not shown here. Equal values may be shown once.

Legend:
ETC complex II = ETC complex II activity after ascorbate exposure; type: cell-based, human; conditions: 15 pmol cell^−1 ascorbate for 1 h, NSCLC cell lysates
Method: (§1) Exponentially growing cells were scraped and frozen as dry pellets until assayed for total activity. Aconitase activity was measured as the rate of appearance of NADPH (at 340 nm; Beckman DU 800 spectrophotometer, Brea, Calif.) for 45 min during the reaction of 200 μg total sample protein with 200 μM NADP^+ and 10 U isocitrate dehydrogenase as previously described (Case et al., 2011). Maximal ETC complex activity was measured as previously described (Birch-Machin et al., 1994). Complex I activity was quantified as the rate of rotenone-inhibitable NADH oxidation (320 nm; c=6.22 mM^−1 cm^−1). Complex II activity as the difference in the rate of DCIP reduction in the presence and absence of succinate (at 600 nm; ε=19.1 mM^−1 cm^−1). Complex IV activity was assayed as the rate of oxidation of cytochrome c ([…]; ε=19.6 mM^−1 cm^−1). Rates of activities were normalized to total protein by Lowry.
(§2) Exponentially growing cells were scraped and frozen as dry pellets until assayed for protein content (Lowry) and maximal ETC complex activity as previously described (Birch-Machin et al., 1994). Briefly, dry cell pellets were resuspended in 20 mM potassium phosphate buffer and sonicated 3×10 s each. Rates of activities were normalized to total protein. Complex I activity was quantified as the rate of rotenone-inhibitable NADH oxidation (320 nm; ε=6.22 mM-1 cm-1). […]

GBM subjects = assay: Phase I clinical trial of pharmacological ascorbate with radiation and temozolomide in GBM
Method: The study was broken into two phases: radiation phase and adjuvant phase. Radiation phase was defined as the time period from day 1 of radiation through adjuvant cycle 1, day 1.
Adjuvant phase was defined as the time period from cycle 1 day 1 through cycle 6 day 28. […] Prescribed doses utilized the same cohorts as the radiation phase. Subjects were dose-escalated after 2 infusions until a plasma level of 20 mM was achieved. […] Temozolomide was prescribed consistent with the Stupp regimen: 150 mg m^−2 for days 1 through 5 of a 28 day cycle. A one-time dose escalation was allowed to 200 mg/m^2 if cycle 1 was tolerated (FIG. 18A).
All subjects agreed to, and participate in, lifelong follow-up for this study. Subject numbers are for convenience and not representative of case ID numbers.
The study was broken into two phases: radiation phase and adjuvant phase. Radiation phase was defined as the time period from day 1 of radiation through adjuvant cycle 1, day 1. […] Cohorts were defined as 15 g, 25 g, 50 g, 62.5 g, 75 g, 87.5 g, 100 g, and 125 g. […] Adjuvant phase was defined as the time period from cycle 1 day 1 through cycle 6 day 28. […] Prescribed doses utilized the same cohorts as the radiation phase. Subjects were dose-escalated after 2 infusions until a plasma level of 20 mM was achieved. […] Temozolomide was prescribed consistent with the Stupp regimen: 150 mg m-2 for days 1 through 5 of a 28 day cycle. A one-time dose escalation was allowed to 200 mg/m2 if cycle 1 was tolerated (FIG. 18A). […] Dose limiting toxicities (DLTs) for the study included grade 4 infection, grade 3 nausea or vomiting despite maximum supportive care, grade 4 neutropenia or thrombocytopenia, and serious adverse events (SAE) with causality to the investigational agent. In addition to DLT, criteria for removal included progressive disease, patient's refusal to continue treatment, and extraordinary medical circumstances (e.g., the constraints of the protocol are considered detrimental to patient health). All subjects agreed to, and participate in, lifelong follow-up for this study. Subject numbers are for convenience and not representative of case ID numbers.

U118 cells = assay: Clonogenic survival assay, U118 GBM cells; type: cell-based, human
Method: Treatment conditions for individual experiments are as described in the figure legends and summarized in the Supplemental Experimental Procedures.
1-2×10^5 cells were plated in 60 mm cell culture dishes and grown in their respective media for 48 h before exposed to experimental conditions. […] For AdGPx1 experiments, cells were supplemented with 50 nM sodium selenite following transduction and throughout clonogenic growth. […] After treatment, cells were washed with PBS and clonogenic assay was completed in their respective media. Briefly, floating and attached cells were collected and total cells per plate were counted. An experimentally derived number of cells were plated into each well of a 6-well cell culture plate in their respective media. For HEL92.1.7 suspension cells, cells were seeded in a top layer of 0.4% (w/v) agarose to allow for quantifiable colony formation. […] Normalized survival fractions were calculated by comparing plating efficiencies of each treatment group against the control group within a given experiment.

ETC complex IV = ETC complex IV activity after ascorbate exposure; type: cell-based, human; conditions: NSCLC cell lysates
Method: as §1, §2

[1] = ascorbate + radiation + temozolomide
[2] = ascorbate + radiation + temozolomide, 11 subjects

O=C1O[C@H]([C@@H](O)CO)C(O)=C1O [ascorbate, L-ascorbic acid]
ETC complex II activity (ETC complex II): inactivation | desired therapeutic blood level (≥20 mM target plasma concentration) reached (GBM subjects; 87.5 g infusions): achieved in all subjects | safety and tolerability (GBM subjects; all 13 subjects, 15-125 g/infusion IV): safe and well tolerated | patients that completed the radiation phase still living (GBM subjects; as of 7/28/15): 10 of 11 | OS range (GBM subjects; [1]): 7.3-29.3 m and 7.3-31.1 m | PFS range (GBM subjects; [1]): 3.4-29.3 m and 3.4-31.1 m | estimated median overall survival (Kaplan-Meier) (GBM subjects; [1]): 28.4 months | mean progression free survival as of 7/28/15 (GBM subjects; [1]): 14 months | median OS (GBM subjects; [1]): 15.5 m | median PFS (GBM subjects; [1]): 9.4 m | average overall survival (OS) (GBM subjects; [2]): 18.2 months | average progression free survival (PFS) (GBM subjects; [2]): 11.9 months | current median overall survival (OS) (GBM subjects; [2]): 16.5 months | median progression free survival (PFS) (GBM subjects; [2]): 9.4 months | adverse events attributed to pharmacological ascorbate (GBM subjects; in combination with radiation and temozolomide): no adverse events attributed to pharmacological ascorbate | subjects remaining alive (GBM subjects; of 11 subjects in longevity analysis): 7 | sensitization to temozolomide + IR (clonogenic survival) (U118 cells; 1 h ascorbate + 25 μM temozolomide + 2 Gy IR): selectively sensitized | clonogenic survival / cell killing (U118 cells; ascorbate alone, increasing concentrations, 1 h): dose-dependent clonogenic cell killing | ETC complex IV activity (ETC complex IV): no inhibition of activity
